# Source: patent US20220332764A1, “T CELL EPITOPES OF HCMV AND USES OF THEREOF” (EBERHARD KARLS UNIVERSITÄT TÜBINGEN, priority 2019, published 2022)
# Test system: PBMCs of healthy HCMV-seropositive donors
# Test: IFNγ ELISpot after 12 day stimulation (memory T-cell response)
# Format: cell-based, human
# Settings: for % Positive donors (after 12 days of stimulation): IFNγ ELISpot, HLA-matched seropositive donors; for Positive donors as tested: positive / tested HLA-matched seropositive donors, positive: >10 spots/well and at least 3-fold negative control
# Source text: PHA was used as positive control.
Sequence,% Positive donors (after 12 days of stimulation),Positive donors as tested
AEPNFPKNVW (listed as Human cytomegalovirus) [SEQ ID NO: 46],14.3%,2/14
ALFNQLVFTA (listed as Human cytomegalovirus) [SEQ ID NO: 16],13.3%,2/15
ALLGRLYFI (listed as Human cytomegalovirus) [SEQ ID NO: 19],6.7%,1/15
ALSPSTSKV (listed as Human cytomegalovirus) [SEQ ID NO: 9],23.5%,4/17
ALYPEYIYTV (listed as Human cytomegalovirus) [SEQ ID NO: 14],16.7%,3/18
APFGRVSV (listed as Human cytomegalovirus) [SEQ ID NO: 35],20.0%,3/15
APNYRQVEL (listed as Human cytomegalovirus) [SEQ ID NO: 37],16.7%,2/12
APYLRDTL (listed as Human cytomegalovirus) [SEQ ID NO: 39],5.3%,1/19
DLDFGDLLKY (listed as Human cytomegalovirus) [SEQ ID NO: 65],12.5%,2/16
EEATALGREL (listed as Human cytomegalovirus) [SEQ ID NO: 47],10.0%,1/10
EEQDYRALL (listed as Human cytomegalovirus) [SEQ ID NO: 44],33.3%,4/12
FFPKLQGNY (listed as Human cytomegalovirus) [SEQ ID NO: 23],16.7%,2/12
FISSKHTL (listed as Human cytomegalovirus) [SEQ ID NO: 84],21.4%,3/14
FPAHDWPEV (listed as Human cytomegalovirus) [SEQ ID NO: 94],13.3%,2/15
FPDATVPATV (listed as Human cytomegalovirus) [SEQ ID NO: 96],6.7%,1/15
FTDNVRFSV (listed as Human cytomegalovirus) [SEQ ID NO: 17],7.8%,1/13
FVEGPGFMRY (listed as Human cytomegalovirus) [SEQ ID NO: 56],35.7%,5/14
GLDQYLESV (listed as Human cytomegalovirus) [SEQ ID NO: 18],7.8%,1/13
GLLAHIPAL (listed as Human cytomegalovirus) [SEQ ID NO: 13],,2/11
GLNERLLSV (listed as Human cytomegalovirus) [SEQ ID NO: 15],15.0%,3/20
GSDALPAGLY (listed as Human cytomegalovirus) [SEQ ID NO: 60],18.8%,3/16
GVSSVTLLK (listed as Human cytomegalovirus) [SEQ ID NO: 73],35.7%,5/14
HLKLRPATF (listed as Human cytomegalovirus) [SEQ ID NO: 83],23.1%,3/13
IAIPHFMVV (listed as Human cytomegalovirus) [SEQ ID NO: 91],33.3%,5/15
IPDYRSVSL (listed as Human cytomegalovirus) [SEQ ID NO: 34],22.2%,4/18
IPHNWFLQV (listed as Human cytomegalovirus) [SEQ ID NO: 92],33.3%,5/15

Sequence,% Positive donors (after 12 days of stimulation),Positive donors as tested
IPMTFVDRDSL (listed as Human cytomegalovirus) [SEQ ID NO: 30],35.7%,5/14
IPPPQIPFV (listed as Human cytomegalovirus) [SEQ ID NO: 90],40.0%,6/15
IPVERQAL (listed as Human cytomegalovirus) [SEQ ID NO: 36],16.7%,2/12
ISENGNLQVTY (listed as Human cytomegalovirus) [SEQ ID NO: 63],15.0%,3/20
KLGGALQAK (listed as Human cytomegalovirus) [SEQ ID NO: 70],40.0%,6/15
LENGVTHRF (listed as Human cytomegalovirus) [SEQ ID NO: 49],7.1%,1/14
LLDELGAVFGY (listed as Human cytomegalovirus) [SEQ ID NO: 62],15.4%,2/13
LPNDHHYAL (listed as Human cytomegalovirus) [SEQ ID NO: 38],5.9%,1/17
LPYLSAERTV (listed as Human cytomegalovirus) [SEQ ID NO: 97],6.7%,1/15
LYVGQFLAY (listed as Human cytomegalovirus) [SEQ ID NO: 21],25.0%,3/12
MLRLLFTL (listed as Human cytomegalovirus) [SEQ ID NO: 86],7.1%,1/14
MPVTHPPEV (listed as Human cytomegalovirus) [SEQ ID NO: 95],13.3%,2/15
NYNEQHYRY (listed as Human cytomegalovirus) [SEQ ID NO: 20],,5/13
QLRSVIRAL (listed as Human cytomegalovirus) [SEQ ID NO: 85],14.3%,2/14
RENAGVALY (listed as Human cytomegalovirus) [SEQ ID NO: 45],19.1%,4/21
REQAAIPQIY (listed as Human cytomegalovirus) [SEQ ID NO: 50],6.3%,1/16
RLADVLIKR (listed as Human cytomegalovirus) [SEQ ID NO: 77],15.4%,2/13
RLFDLPVYC (listed as Human cytomegalovirus) [SEQ ID NO: 6],41.7%,5/12
RSVRLPYMYK (listed as Human cytomegalovirus) [SEQ ID NO: 78],13.3%,2/15
RTFAGTLSR (listed as Human cytomegalovirus) [SEQ ID NO: 76],21.4%,3/14
RVDPNLRNR (listed as Human cytomegalovirus) [SEQ ID NO: 74],33.3%,5/15
RVSQPSLIL (listed as Human cytomegalovirus) [SEQ ID NO: 32],26.7%,4/15
RVYAYDTREK (listed as Human cytomegalovirus) [SEQ ID NO: 72],36.4%,4/11
SESLVAKRY (listed as Human cytomegalovirus) [SEQ ID NO: 48],10.0%,1/10
SFFPKLQGNY (listed as Human cytomegalovirus) [SEQ ID NO: 22],22.2%,2/9
